Patent US20250115597A1, “TYK2 INHIBITORS AND COMPOSITIONS AND METHODS THEREOF” (LYNK PHARMACEUTICALS CO. LTD., priority 2021, published 2025)
Where two headings read alike, the source gives them in different places.

How the values were obtained:
[1] = molecular target: T1, Ba/F3-FL-TYK2-P760L cells (Homo sapiens, UniProt P29597, P760L, cells depend on it); assay: Anti-proliferative assay, Ba/F3-FL-TYK2-P760L cells (Cell-Titer Glo); format: cell-based; details: 72 h, read-out: BaF3-FL-T2P760L IC50
T1 construct: BaF3-FL-T2P760L (nM)
Method in brief: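 Ba/F3 cells made IL-3-independent by TEL-fused or full-length mutant JAK-family kinases, seeded at 2000/well and dosed after 24 h with 9 three-fold dilutions topping at 20 μM. Viability after 72 h at 37 °C, 5% CO2 by Cell-Titer Glo ATP luminescence.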

[2] = Microsomal metabolic stability assay; format: in vitro ADME; details: pH 7.4, 0.5 mg/mL protein, 1 μM compound
Procedure: Microsomal Metabolic Stability Assay
Microsomes were pre-incubated with test compound or control compounds for 5 min at 37° C. in 100 mM potassium phosphate buffer, pH 7.4, 1.0 mM EDTA. The reaction was initiated by addition of 15 μL of the NADPH regenerating system to 30 μL of each incubation mixture per time point. The final incubation condition was composed of 0.5 mg/mL microsomal protein, 1 μM test article/positive control, 2 mM NADPH. The 0-minute samples were prepared by addition of a 30 μL aliquot of each incubation mixture to 135 μL quench reagent to precipitate proteins. And then a 15 μL aliquot of the NADPH regenerating system was added. At 5, 15, 30 and 45 minutes, the reaction will be stopped by the addition of cold acetonitrile solution containing internal standard. The samples taken at all time points were centrifuged at 5000×g for 15 minutes. 50 μL of supernatant are taken into 96-well assay plates pre-added with 50 μL ultrapure water, and then analyzed by LC/MS/MS.
Concentrations of test articles, control compounds in the samples were determined by using LC/MS/MS method. Plotting of the chromatograms and peak area integrations are carried out by Analyst (AB Sciex).
n the determination of the in vitro elimination constant (ke) of the control compounds, the analyte/internal standard peak area ratios will be converted to percentage remaining (% Remaining) with the following equation: […]
The slope was measured by the natural logarithm of the percentage of the residual compound and time, T1/2 was calculated according to the following formula.

[3] = dog liver microsomes, read-out: Dog LM Clint
[4] = dog liver microsomes, read-out: Dog LM T½
[5] = human liver microsomes, read-out: Human LM Clint
[6] = human liver microsomes, read-out: Human LM T½
[7] = rat liver microsomes, read-out: Rat LM Clint
[8] = rat liver microsomes, read-out: Rat LM T½

T1 sequence (P29597 whole entry P760L): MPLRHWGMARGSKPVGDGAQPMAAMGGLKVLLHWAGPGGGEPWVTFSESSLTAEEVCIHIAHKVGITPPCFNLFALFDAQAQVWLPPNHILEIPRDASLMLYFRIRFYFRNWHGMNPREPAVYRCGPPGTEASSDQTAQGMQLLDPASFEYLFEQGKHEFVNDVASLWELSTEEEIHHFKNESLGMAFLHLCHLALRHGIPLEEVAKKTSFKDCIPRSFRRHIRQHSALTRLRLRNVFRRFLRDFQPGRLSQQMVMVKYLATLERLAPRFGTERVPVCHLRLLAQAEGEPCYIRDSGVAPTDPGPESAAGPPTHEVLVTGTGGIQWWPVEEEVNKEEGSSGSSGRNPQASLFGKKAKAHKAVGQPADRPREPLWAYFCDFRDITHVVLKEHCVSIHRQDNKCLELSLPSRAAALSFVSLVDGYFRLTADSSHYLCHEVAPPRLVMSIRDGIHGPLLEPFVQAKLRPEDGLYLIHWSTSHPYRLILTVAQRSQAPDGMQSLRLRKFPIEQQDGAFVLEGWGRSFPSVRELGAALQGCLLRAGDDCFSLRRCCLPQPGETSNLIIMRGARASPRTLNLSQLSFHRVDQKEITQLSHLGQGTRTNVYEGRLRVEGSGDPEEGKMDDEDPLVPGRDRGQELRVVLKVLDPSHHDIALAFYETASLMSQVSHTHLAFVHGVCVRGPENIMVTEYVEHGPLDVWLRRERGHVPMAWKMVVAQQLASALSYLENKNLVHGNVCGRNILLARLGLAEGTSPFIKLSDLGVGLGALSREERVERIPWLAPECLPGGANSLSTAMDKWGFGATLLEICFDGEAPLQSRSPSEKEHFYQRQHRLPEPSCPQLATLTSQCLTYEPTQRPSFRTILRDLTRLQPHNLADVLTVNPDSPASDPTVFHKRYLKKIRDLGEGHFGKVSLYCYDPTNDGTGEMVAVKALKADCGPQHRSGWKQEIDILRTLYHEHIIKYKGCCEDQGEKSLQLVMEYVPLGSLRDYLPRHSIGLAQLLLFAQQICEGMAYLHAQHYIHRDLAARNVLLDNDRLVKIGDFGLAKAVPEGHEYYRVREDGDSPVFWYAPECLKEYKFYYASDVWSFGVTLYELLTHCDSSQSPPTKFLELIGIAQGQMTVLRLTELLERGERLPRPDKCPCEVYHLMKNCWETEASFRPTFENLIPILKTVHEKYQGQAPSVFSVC

SMILES	GI50 [1] [nM]	microsomal CLint at 1 μM [2, 3] [µL/min/mg]	half-life at 1 μM [2, 4] [min]	microsomal CLint at 1 μM [2, 5] [µL/min/mg]	half-life at 1 μM [2, 6] [min]	microsomal CLint at 1 μM [2, 7] [µL/min/mg]	half-life at 1 μM [2, 8] [min]
CCn1ccc2c(c(Nc3cc(Nc4ncc(F)cc4F)ncc3C(=O)NC)cn2C)c1=O [Example 98, 6-((3,5-Difluoropyridin-2-yl)amino)-4-((5-ethyl-1-methyl-4-oxo-4,5-dihydro-1H-pyrrolo[3,2-c]pyridin-3-yl)amino)-N-methylnicotinamide]	488	37.3	37.2	32.6	42.5	114	12.1
[2H]C([2H])([2H])NC(=O)c1cnc(Nc2cc(F)c(F)cn2)cc1Nc1cn(C)c2c(F)cn(C)c(=O)c12 [Example 121, 6-((4,5-Difluoropyridin-2-yl)amino)-4-((7-fluoro-1,5-dimethyl-4-oxo-4,5-dihydro-1H-pyrrolo[3,2-c]pyridin-3-yl)amino)-N-(methyl-d3)nicotinamide]	42.2	19.9	69.6	135	10.2	115	12.1
[2H]C([2H])([2H])NC(=O)c1cnc(Nc2ccc(F)cn2)cc1Nc1ccc2cnn(C([2H])([2H])[2H])c2c1OC [Example 141, 6-((5-Fluoropyridin-2-yl)amino)-4-((7-methoxy-1-(methyl-d3)-1H-indazol-6-yl)amino)-N-(methyl-d3)nicotinamide]	29.1	93.8	14.8	76	18.2	46.8	29.6
[2H]C([2H])([2H])NC(=O)c1cnc(Nc2cccc(C#N)n2)cc1Nc1cn(C)c2c(Cl)cn(CC)c(=O)c12 [Example 163, 4-((7-Chloro-5-ethyl-1-methyl-4-oxo-4,5-dihydro-1H-pyrrolo[3,2-c]pyridin-3-yl)amino)-6-((6-cyanopyridin-2-yl)amino)-N-(methyl-d3)nicotinamide]	36.7	12.1	114	82.1	16.9	101	13.7
CNC(=O)c1cnc(NC(=O)C2CC2)cc1Nc1csc2c(Cl)cn(C)c(=O)c12 [Example 171, 4-((7-Chloro-5-methyl-4-oxo-4,5-dihydrothieno[3,2-c]pyridin-3-yl)amino)-6-(cyclopropanecarboxamido)-N-methylnicotinamide]	105	2.94	471	12.8	109	16.9	81.9
[2H]C([2H])([2H])NC(=O)c1cnc(NC(=O)C2CC2)cc1Nc1csc2c(Cl)cn(C)c(=O)c12 [Example 172, 4-((7-Chloro-5-methyl-4-oxo-4,5-dihydrothieno[3,2-c]pyridin-3-yl)amino)-6-(cyclopropanecarboxamido)-N-(methyl-d3)nicotinamide]	109	16.5	84.1	57.4	24.1	66.5	20.8
[2H]C([2H])([2H])NC(=O)c1cnc(NC(=O)C2CC2)cc1Nc1csc2c(Cl)cn(C([2H])([2H])[2H])c(=O)c12 [Example 174, 4-((7-Chloro-5-(methyl-d3)-4-oxo-4,5-dihydrothieno[3,2-c]pyridin-3-yl)amino)-6-(cyclopropanecarboxamido)-N-(methyl-d3)nicotinamide]	147	< 11.5	> 120	18.2	76.2	25.9	53.5

Now from value to compound:

GI50 [1] [nM]	microsomal CLint at 1 μM [2, 3] [µL/min/mg]	half-life at 1 μM [2, 4] [min]	microsomal CLint at 1 μM [2, 5] [µL/min/mg]	half-life at 1 μM [2, 6] [min]	microsomal CLint at 1 μM [2, 7] [µL/min/mg]	half-life at 1 μM [2, 8] [min]	SMILES
56.7	33.1	105	89.9	38.5	181	19.1	[2H]C([2H])([2H])NC(=O)c1cnc(Nc2ccc(F)cn2)cc1Nc1cn(C)c2ccn(CC)c(=O)c12 [Example 99, 4-[(5-Ethyl-1-methyl-4-oxo-pyrrolo[3,2-c]pyridin-3-yl)amino]-6-[(5-fluoro-2-pyridyl)amino]-N-(methyl-d3)pyridine-3-carboxamide]
100	18.7	84.8	53	26.2	55.6	25	[2H]C([2H])([2H])NC(=O)c1cnc(NC(=O)C2CC2)cc1Nc1cn(C)c2c(F)cn(CC(F)(F)F)c(=O)c12 [Example 123, 6-(Cyclopropanecarboxamido)-4-((7-fluoro-1-methyl-4-oxo-5-(2,2,2-trifluoroethyl)-4,5-dihydro-1H-pyrrolo[3,2-c]pyridin-3-yl)amino)-N-(methyl-d3)nicotinamide]
175	54.4	25.5	59	23.5	124	11.1	[2H]C([2H])([2H])NC(=O)c1cnc(NC(=O)C2CC2)cc1Nc1cc(F)c2cnn(CC)c2c1OC [Example 147, 6-(Cyclopropanecarboxamido)-4-((1-ethyl-4-fluoro-7-methoxy-1H-indazol-6-yl)amino)-N-(methyl-d3)nicotinamide]
21.6	27.2	51	74.6	18.6	63.5	21.8	[2H]C([2H])([2H])NC(=O)c1cnc(Nc2cccc(F)n2)cc1Nc1cn(C)c2c(Cl)cn(CC)c(=O)c12 [Example 161, 4-((7-Chloro-5-ethyl-1-methyl-4-oxo-4,5-dihydro-1H-pyrrolo[3,2-c]pyridin-3-yl)amino)-6-((6-fluoropyridin-2-yl)amino)-N-(methyl-d3)nicotinamide]
189	< 11.5	> 120	< 11.5	> 120	23.1	60.1	[2H]C([2H])([2H])NC(=O)c1cnc(NC(=O)C2CC2)cc1Nc1csc2cnn(C(C)C)c(=O)c12 [Example 184, 6-(Cyclopropanecarboxamido)-4-((5-isopropyl-4-oxo-4,5-dihydrothieno[2,3-d]pyridazin-3-yl)amino)-N-(methyl-d3)nicotinamide]
428	< 11.5	> 120	< 11.5	> 120	< 11.5	> 120	[2H]C([2H])([2H])NC(=O)c1cnc(NC(=O)C2CC2)cc1Nc1csc2cnn(C(C)C(F)(F)F)c(=O)c12 (stereo not shown) [Example 185, 6-(Cyclopropanecarboxamido)-N-(methyl-d3)-4-((4-oxo-5-(1,1,1-trifluoropropan-2-yl)-4,5-dihydrothieno[2,3-d]pyridazin-3-yl)amino)nicotinamide]
